For orientation: EC50 means the concentration at which the effect is half-maximal. In general, IC50 refers to the midpoint of a concentration-inhibition curve. Low readings indicate greater potency, high ones weaker potency.

Values joined by “and” are separate entries in the source; they are usually repeats but may differ in a detail not shown here. Identical values can stand only once. Active and inactive are the calls of the source.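 Rule for the calls: active = compounds giving half or more protection of infected cells from virus-caused growth loss, again on retest; inactive = the rest.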 Where a SMILES comes first, the peptide text is derived from it. Bridges are numbered along the chain shown (N, C = ends). Roman numbers before positions name the chains, in order.

The assay deals with CEM cells HIV-1 protection, formazan growth assay. Kind of assay: NCI AIDS Antiviral Assay. The following applies: for IC50: measured here: growth of uninfected CEM cells. A digest of the protocol:
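Category rules: moderately active means at least 50% protection on retest, and confirmed active means 100% protection reproducibly. The underlying data came from a formazan growth assay in HIV-1-infected CEM cells.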

As to `O=C1[C@@H]2C(c3ccc(Br)cc3)=NO[C@@H]2C(=O)N1c1ccc(Cc2ccc(N3C(=O)[C@H]4C(c5ccc(Br)cc5)=NO[C@H]4C3=O)cc2)cc1`, the EC50 is more than 9.55 µM and the IC50 was more than 9.55 µM.
On to `OCC1(CNc2cc(Cl)ncn2)CCC1`, for which the EC50 is more than 200 µM and the IC50 is more than 200 µM.
On to `CCN(CC)CCCCCCCNc1c2ccc(Cl)cc2nc2ccc(OC)cc12`, for which the EC50 is more than 2 µM and the IC50 is 0.427 µM.
Regarding `COc1c(Br)cc(/C=C(\C#N)c2cccnc2)cc1Br`, the EC50 was more than 200 µM and the IC50 amounted to 25.1 µM.
In the case of `Nc1nc(Cl)c(Cl)nc1C(=O)O`, the EC50 is more than 200 µM and the IC50 stood at 117 µM.
On to `CCOC(=O)c1c(-c2cc(OC)c(OC)c(OC)c2)csc1N`, for which the EC50 is more than 200 µM and the IC50 was found to be 12 µM.
As for `CC(=O)OCC1OC(SC2=NC(=O)/C(=C/c3ccccc3)S2)C(OC(C)=O)C(OC(C)=O)C1OC(C)=O` (stereo not drawn), the EC50 was more than 200 µM and the IC50 amounted to 32.4 µM.
Taken in the same sequence, the figures for `CN1C=CC(C(C(N)=O)c2ccccc2)c2ccccc21` (stereo not drawn) were more than 200 µM and 178 µM.
Turning to `NCCCOCC(=O)O`, the outcome was inactive.
As for `NC(=O)c1ncn(C2OC(CO)C(O)C2O)c1NC(=S)NC(=O)c1ccccc1` (stereo not drawn), the EC50 is more than 589 µM and the IC50 is more than 589 µM.
For the compound `C/C(=N/Nc1ccc([N+](=O)[O-])cc1[N+](=O)[O-])C(CC(C(=O)Nc1ccccc1C)/C(C)=N\Nc1ccc([N+](=O)[O-])cc1[N+](=O)[O-])C(=O)Nc1ccccc1C` (stereo not drawn), the EC50 is more than 9.55 µM and the IC50 is more than 9.55 µM.
On to `CSC1C=C(C(C)C)CCC1(C)SC` (stereo not drawn), for which the EC50 is more than 200 µM and the IC50 is 39.8 µM.
In the case of `NCCCNCCNCCCN`, the EC50 was more than 200 µM and the IC50 was more than 200 µM.
With `CCC[CH2][Sn]1([CH2]CCC)[O]CC(CN2CCOCC2)[O]1` (stereo not drawn), the EC50 was more than 4.57 µM and the concentration for half-maximal inhibition (IC50) came out at 0.295 µM.
Take `CCOP(=S)(NN=C1CCCCC1)OCC`: the EC50 was more than 200 µM and the IC50 worked out at 112 µM.
On to `CCOC(=O)c1c(SCc2cc(=O)[nH]c(=O)[nH]2)n(-c2ccccc2)c(=S)n(-c2ccccc2)c1=O`, for which the EC50 was 191 µM and the IC50 is more than 200 µM.
As to `O=C(CCC(=O)Nc1ccc(Cl)cc1)CC(=O)c1ccc2ccccc2c1`, the EC50 is more than 245 µM and the IC50 was more than 245 µM.
Consider `c1ccc2c3c([nH]c2c1)C1CCCN1CC3` (stereo not drawn), for which the EC50 is more than 617 µM and the IC50 was 174 µM.
In the case of `O=C1CCC(c2ccccc2)CCN1` (stereo not drawn), the outcome was inactive.
For the compound `O=C(Nc1ccc(C2=NCCN2)cc1)c1ccc(C(=O)Nc2ccc(C3=NCCN3)cc2)c([N+](=O)[O-])c1`, the EC50 was more than 200 µM and the IC50 was determined as 29.5 µM.
In the case of `O=C1C(=O)N(C(=O)c2ccc(Cl)c(Cl)c2)c2ccccc21`, the outcome was inactive.
For the compound `C1CC2N=C3OCCC3N=C2O1` (stereo not drawn), the EC50 was more than 1510 µM and the IC50 was more than 1510 µM.
As for `CCNC(=S)NNC(=O)c1nsc2ccccc12`, the EC50 is more than 339 µM and the half-inhibitory concentration (IC50) is 186 µM.
Regarding `CN(C)c1ccc(/C=C(\C#N)c2ccc(F)cc2F)cc1`, the EC50 is more than 200 µM and the half-inhibitory concentration (IC50) was determined as 1.2 µM.
For `CCc1cc2c(Nc3ccccc3)c3c(nc2s1)CCCC3`, in that order: more than 85.1 µM and more than 85.1 µM.
Take `O=C1NC(=O)C(=Cc2cccc(Br)c2)C(=O)N1`: the EC50 was more than 123 µM and the IC50 was more than 123 µM.
Take `CCCCCC1=CC2C(=O)NC(=O)NC12` (stereo not drawn): the EC50 is more than 47.9 µM and the IC50 is more than 47.9 µM.
On to `COC(=O)c1cc2ccccc2c2nc3ccccc3c(Cl)c12`, for which the EC50 was more than 8.13 µM and the IC50 was more than 8.13 µM.
On to `CC1(C)CC2(C)OC(=N)C1(C#N)C2(C#N)C#N` (stereo not drawn), for which the EC50 was more than 200 µM and the IC50 worked out at 2.34 µM.
Turning to `O=c1[nH]cnc2c1ncn2[C@@H]1C[C@@H]1CO`, the EC50 is more than 200 µM and the IC50 was more than 200 µM.
In the case of `CC1=CO[C@@H]2O[C@@]3(C)CC[C@H]4[C@H](C)CC[C@@H]1[C@@]24O3`, the EC50 was more than 200 µM and the IC50 was more than 200 µM.
As to `S=C(NCCSSCCNC(=S)Nc1ccccc1)Nc1ccccc1`, the EC50 is more than 200 µM and the concentration for half-maximal inhibition (IC50) turned out to be 35.5 µM.
As to `CCOC(=O)COC(=O)c1cc(C(=CCC[C@H]2CC[C@@]3(C)[C@@H](CC[C@@H]4[C@@H]3CC[C@]3(C)[C@@H](C(C)CCCC(C)C)CC[C@@H]43)C2)c2cc(Cl)c(OCC(=O)OCC)c(C(=O)OCC(=O)OCC)c2)cc(Cl)c1OCC(=O)OCC` (stereo partly drawn), the EC50 is more than 200 µM and the IC50 is more than 200 µM.
With `C=CCOC(=O)C1(C)C(=O)CCC1CC/C=C/C(C)=O` (stereo not drawn), the EC50 is more than 129 µM and the IC50 is 6.03 µM.
For `CN(C)c1ccc(/C=C/c2sc3ccccc3[n+]2C)cc1`, the EC50 was more than 47.9 µM and the IC50 was 0.575 µM.
Turning to `Nc1ccc2c(O)c(N=Nc3ccc(-c4ccc(N=Nc5c(S(=O)(=O)O)cc6cc(S(=O)(=O)O)c(N=Nc7cc(Cl)ccc7Cl)c(N)c6c5O)cc4)cc3)c(S(=O)(=O)O)cc2c1`, the outcome was inactive.
As for `CC(=O)Nc1ccc(/C=N/Nc2nnc(N/N=C/c3ccc(NC(C)=O)cc3)c3ccccc23)cc1`, the EC50 is more than 200 µM and the IC50 was determined as 7.59 µM.
For `O=C1CCC[C@H]2O[C@@H](COC(=O)c3ccccc3)C[C@H]2O1`, in that order: more than 200 µM and more than 200 µM.
In the case of `CC1=Nc2ccccc2C12C(c1ccccc1)CC(=O)N1c3ccccc3CC12` (stereo not drawn), the EC50 is more than 33.9 µM and the IC50 is more than 33.9 µM.
In the case of `CCOC(=O)C(=CNc1ccc(N(C2=NCC(C)S2)c2ccc(F)c(Cl)c2)cc1)C(=O)OCC` (stereo not drawn), the result was inactive.
Regarding `CSc1ncnc2c1cnn2CCCCO`, the EC50 was more than 200 µM and the IC50 was more than 200 µM.
For `COc1cccc(C2=NC(C(C)(C)C)CO2)c1-c1ccccc1C1OCCO1` (stereo not drawn), the EC50 is more than 339 µM and the IC50 was more than 339 µM.
For the compound `CC(=O)OCC1OC(n2c(-c3ccccc3)c(N=Nc3ccc(Cl)cc3)c(C)c(C#N)c2=S)C(OC(C)=O)C(OC(C)=O)C1OC(C)=O` (stereo not drawn), the EC50 was more than 200 µM; the IC50 is 24.5 µM and 95.5 µM.
For the compound `Cc1nc(N)c(N2CCN(C#N)CC2)c(=O)[nH]1`, the EC50 was more than 200 µM and the half-inhibitory concentration (IC50) is more than 200 µM.
On to `[N-]=[N+]=NCCOCn1ccc(=O)[nH]c1=O`, for which the EC50 is more than 200 µM and the IC50 was more than 200 µM.
Consider `CC(C)C1CN1CC(O)Cn1ccnc1[N+](=O)[O-]` (stereo not drawn), for which the EC50 was more than 200 µM and the IC50 is more than 200 µM.
For the compound `Cc1ccc(/C=C2/NC(=S)SC2=O)cc1`, the EC50 is more than 200 µM and the IC50 is 170 µM.
For `Cc1cn(C2CC(O)C(COC(=O)CCCCCCCCCCN=[N+]=[N-])O2)c(=O)[nH]c1=O` (stereo not drawn), in that order: more than 123 µM and 24 µM.
For `CCOC(=O)C1=NN(c2ccc(C)cc2)C2=CC(C)=NN(C)C(=S)N21`, in that order: more than 200 µM and more than 200 µM.
For `C[C@@H](CO)C1=C(O)c2ccc3c(c2C(=O)C1=O)CCCC3(C)C`, in that order: more than 200 µM and 15.1 µM.
With `CCn1c2c(c3ccccc31)CCSC2(C)CCN(C)C` (stereo not drawn), the outcome was inactive.
`COc1ccc(NC(=O)CC(=O)N/N=C(/C)c2cc3cc(N=Nc4ccccc4Cl)ccc3oc2=O)cc1`: the EC50 is more than 9.77 µM and the IC50 was more than 9.77 µM.
`Cc1cc(S(=O)(=O)Nc2nc(N)nc(N3N=CCC3C)n2)c(S)cc1Cl` (stereo not drawn): the EC50 is 55 µM and the IC50 is more than 200 µM.
For the compound `COc1csc([C@H]2CCC3[C@@H]4CC=C5C[C@@H](OC(C)=O)CC[C@]5(C)C4CC[C@@]32C)n1` (stereo partly drawn), the EC50 is more than 57.5 µM and the IC50 was more than 57.5 µM.
`COC(=O)/C(C#N)=C/Sc1ccccc1`: the outcome was inactive.
As for `CC1CC(C2=CC=CCS2)=Nc2ccccc2S1` (stereo not drawn), the EC50 is more than 55 µM and the IC50 came to 53.7 µM.
For the compound `CC1CC2(C)ON=C(c3ccccc3)N2c2ccccc2S1` (stereo not drawn), the result was inactive.
As to `CC(C)C(NC(=O)C(N)CSSCC(N)C(=O)NC(C(=O)O)C(C)C)C(=O)O` (stereo not drawn) (I: H-Cys-Val-OH / II: H-Cys-Val-OH; disulfide I:1-II:1; configuration not given here), the result was inactive.
`COc1cc2c(c(OC3OC(CO)C(O)C(O)C3O)c1)C(=O)CC(c1ccc(O)cc1)O2` (stereo not drawn): the EC50 was more than 200 µM and the IC50 amounted to 195 µM.
For `C=CC(C)(O)CNc1ccccc1` (stereo not drawn), in that order: more than 204 µM and more than 204 µM.
Taken in the same sequence, the figures for `O=C1OC(c2ccccc2)c2ccsc2-n2cccc21` (stereo not drawn) were more than 200 µM and 123 µM.
For `CCOC(=O)C(NC(=O)c1ccccc1)(c1ccc(S(=O)(=O)Nc2onc(C)c2C)cc1)C(F)(F)F` (stereo not drawn), the EC50 was more than 200 µM and the IC50 was more than 200 µM.
Take `CCN(CC)CC1CCCCN1CC(=O)N1c2ccccc2NC(=O)CC1C` (stereo not drawn): the EC50 was 158 µM and the IC50 was more than 200 µM.
For `NC1(C(=O)O)CSSC1`, the IC50 was 10.7 µM and 8.71 µM.
Turning to `CCOC(=O)C(=Cc1ccccc1OC)C(=O)OCC`, the EC50 was more than 129 µM and the IC50 was determined as 21.9 µM.
For `Fc1cccc(F)c1C1SCc2nc3cc(Cl)c(Cl)cc3n21` (stereo not drawn), in that order: 120 µM and 195 µM.
For `N#C/C(=C1/Sc2c(nc[nH]c2=O)N1c1ccccc1)c1nc2ccccc2[nH]1`, in that order: more than 3.8 µM and more than 3.8 µM.
Taken in the same sequence, the figures for `CCOC(=O)/C=C/c1ccc(F)cc1` were more than 97.7 µM and more than 97.7 µM.
As for `Cc1ncc([N+](=O)[O-])n1CCn1ccnc1[N+](=O)[O-]`, the EC50 was more than 200 µM and the IC50 was more than 200 µM.
Take `O=C1C2=C(C(=O)c3ccccc31)C(O)(S(=O)(=O)O)C(O)(S(=O)(=O)O)C1N=CC=CC21` (stereo not drawn): the EC50 was more than 200 µM and the IC50 is 3.39 µM.
Taken in the same sequence, the figures for `Cn1nc(-c2ccccc2)c(C(=O)/C=C/c2ccc(Cl)cc2)c(N2CCCCC2)c1=O` were more than 17.8 µM and more than 17.8 µM.
For the compound `Cc1c2ccnc(C#N)c2c(C)c2c1[nH]c1ccccc12`, the result was inactive.

The values above are taken from PubChem BioAssay AID179 (DTP/NCI, 2004).
